The supplement of paper PMC11208160

Assay: recombinant barcode read abundance after kanamycin selection (control-corrected) (log10(CPM+1)); higher = more efficient recombination; sequences stand for … in AGTGCAGAGAAAATCGGCCAGTTTTCTCTGCCTGCAGTCCGCATGCCGT…ATTTATGCAGCGGACTGCCTTTCTCCCAAAGTGATAAACCGGACAGTATCATGGACCGGTTTTCCCGGTAATCCGTATTTGCAAGGTTGGTTTCACT; site = the 11-nt target
Outline: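 Recombination efficiency was calculated from barcode counts at recombinant junctions, normalized to counts per million, averaged and corrected by the control. Each value is given as log10(CPM+1). The constructs were Gibson-cloned oligos (promoter, target, barcode, J23119-driven first 104 bridge RNA bases) in a vector with the remaining 73 bp and a T7-inducible recombinase, co-electroporated into E. coli with a donor plasmid and plated in duplicate on chloramphenicol/ampicillin LB agar (control) or chloramphenicol/ampicillin/kanamycin with 0.1 mM IPTG.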

Row | Sequence | recombinant barcode read abundance (log10)
1 | CATATTACTTGGGTTCTAACCTGTTGCCTTG [CATATTACTAG_LTGcore_CT_RTGcore_CA] (site CATATTACTAG) (LTG core: CT, RTG core: CA) | 0.214
2 | GAGTCCAGGTGGGTTCTAACCTGTTGCGTCC [GAGTCCACTAC_LTGcore_GG_RTGcore_GG] (site GAGTCCACTAC) (LTG core: GG, RTG core: GG) | 0.0822
3 | GCGGGACCGTGGGTTCTAACCTGTTGCCTCG [GCGGGACCTAG_LTGcore_CG_RTGcore_CG] (site GCGGGACCTAG) (LTG core: CG, RTG core: CG) | 0.248
4 | TTATAAACTTGGGTTCTAACCTGTTGCCTCT [TTATAAACTAG_LTGcore_CT_RTGcore_AG] (site TTATAAACTAG) (LTG core: CT, RTG core: AG) | 0.0489
5 | GGGAGCCCTTGGGTTCTAACCTGTTGCTGGT [GGGAGCCCTCA_LTGcore_CT_RTGcore_AC] (site GGGAGCCCTCA) (LTG core: CT, RTG core: AC) | 0.208
6 | GGACACCGGTGGGTTCTAACCTGTTGCCTAG [GGACACCCTAG_LTGcore_GG_RTGcore_CT] (site GGACACCCTAG) (LTG core: GG, RTG core: CT) | 0.255
7 | CGGTCCCTCTGGGTTCTAACCTGTTGCCAGA [CGGTCCCCTTG_LTGcore_TC_RTGcore_TC] (site CGGTCCCCTTG) (LTG core: TC, RTG core: TC) | 0.174
8 | AGTCTTAAGTGGGTTCTAACCTGTTGCCAAG [AGTCTTACTTG_LTGcore_AG_RTGcore_CT] (site AGTCTTACTTG) (LTG core: AG, RTG core: CT) | 0.102
9 | CGGTCCCGTTGGGTTCTAACCTGTTGCCAAC [CGGTCCCCTTG_LTGcore_GT_RTGcore_GT] (site CGGTCCCCTTG) (LTG core: GT, RTG core: GT) | 0.229
10 | AGGCGGGACTGGGTTCTAACCTGTTGCGGAG [AGGCGGGCTCC_LTGcore_AC_RTGcore_CT] (site AGGCGGGCTCC) (LTG core: AC, RTG core: CT) | 0.555
11 | GGGAGCCCTTGGGTTCTAACCTGTTGCTGGG [GGGAGCCCTCA_LTGcore_CT_RTGcore_CC] (site GGGAGCCCTCA) (LTG core: CT, RTG core: CC) | 0.111
12 | TAAGAATTCTGGGTTCTAACCTGTTGCCTGA [TAAGAATCTAG_LTGcore_TC_RTGcore_TC] (site TAAGAATCTAG) (LTG core: TC, RTG core: TC) | 0.0111
13 | AAACATGTGTGGGTTCTAACCTGTTGCCTAG [AAACATGCTAG_LTGcore_TG_RTGcore_CT] (site AAACATGCTAG) (LTG core: TG, RTG core: CT) | 0.0752
14 | TTATAAATTTGGGTTCTAACCTGTTGCCTAA [TTATAAACTAG_LTGcore_TT_RTGcore_TT] (site TTATAAACTAG) (LTG core: TT, RTG core: TT) | 0.0515
15 | CATATTACCTGGGTTCTAACCTGTTGCCTAG [CATATTACTAG_LTGcore_CC_RTGcore_CT] (site CATATTACTAG) (LTG core: CC, RTG core: CT) | 0.0888
16 | AAACAGTCTTGGGTTCTAACCTGTTGCCTGG [AAACAGTCTAG_LTGcore_CT_RTGcore_CC] (site AAACAGTCTAG) (LTG core: CT, RTG core: CC) | 0.921
17 | TCTACCCCTTGGGTTCTAACCTGTTGCTGAT [TCTACCCCTCA_LTGcore_CT_RTGcore_AT] (site TCTACCCCTCA) (LTG core: CT, RTG core: AT) | 0.131
18 | GAGTCCTCTTGGGTTCTAACCTGTTGCCTGT [GAGTCCTCTAG_LTGcore_CT_RTGcore_AC] (site GAGTCCTCTAG) (LTG core: CT, RTG core: AC) | 0.0922
19 | GAGGCCTCCTGGGTTCTAACCTGTTGCCAGG [GAGGCCTCTTG_LTGcore_CC_RTGcore_CC] (site GAGGCCTCTTG) (LTG core: CC, RTG core: CC) | 0.215
20 | CGGTCCCCCTGGGTTCTAACCTGTTGCCAAG [CGGTCCCCTTG_LTGcore_CC_RTGcore_CT] (site CGGTCCCCTTG) (LTG core: CC, RTG core: CT) | 0.189
21 | CGAGCCCCTTGGGTTCTAACCTGTTGCTGCT [CGAGCCCCTCA_LTGcore_CT_RTGcore_AG] (site CGAGCCCCTCA) (LTG core: CT, RTG core: AG) | 0.203
22 | TGATACCCTTGGGTTCTAACCTGTTGCGTCA [TGATACCCTAC_LTGcore_CT_RTGcore_TG] (site TGATACCCTAC) (LTG core: CT, RTG core: TG) | 0.796
23 | GGCTCCCCTTGGGTTCTAACCTGTTGCGGCT [GGCTCCCCTCC_LTGcore_CT_RTGcore_AG] (site GGCTCCCCTCC) (LTG core: CT, RTG core: AG) | 0.0367

Row | Sequence | recombinant barcode read abundance (log10)
24 | TCGCGACGGTGGGTTCTAACCTGTTGCCGAG [TCGCGACCTCG_LTGcore_GG_RTGcore_CT] (site TCGCGACCTCG) (LTG core: GG, RTG core: CT) | 0.167
25 | GGTGCCCAATGGGTTCTAACCTGTTGCCGAG [GGTGCCCCTCG_LTGcore_AA_RTGcore_CT] (site GGTGCCCCTCG) (LTG core: AA, RTG core: CT) | 0.135
26 | GGGAGCCTGTGGGTTCTAACCTGTTGCTGCA [GGGAGCCCTCA_LTGcore_TG_RTGcore_TG] (site GGGAGCCCTCA) (LTG core: TG, RTG core: TG) | 0.285
27 | TAGAGGGATTGGGTTCTAACCTGTTGCGGAG [TAGAGGGCTCC_LTGcore_AT_RTGcore_CT] (site TAGAGGGCTCC) (LTG core: AT, RTG core: CT) | 0.147
28 | TCGCGACTGTGGGTTCTAACCTGTTGCCGAG [TCGCGACCTCG_LTGcore_TG_RTGcore_CT] (site TCGCGACCTCG) (LTG core: TG, RTG core: CT) | 0.302
29 | GGCTCCCACTGGGTTCTAACCTGTTGCGGGT [GGCTCCCCTCC_LTGcore_AC_RTGcore_AC] (site GGCTCCCCTCC) (LTG core: AC, RTG core: AC) | 0.143
30 | TCTACCCCTTGGGTTCTAACCTGTTGCTGGA [TCTACCCCTCA_LTGcore_CT_RTGcore_TC] (site TCTACCCCTCA) (LTG core: CT, RTG core: TC) | 0.0313
31 | GAGTCCATCTGGGTTCTAACCTGTTGCGTGA [GAGTCCACTAC_LTGcore_TC_RTGcore_TC] (site GAGTCCACTAC) (LTG core: TC, RTG core: TC) | 0.0654
32 | TCGCGACCTTGGGTTCTAACCTGTTGCCGGC [TCGCGACCTCG_LTGcore_CT_RTGcore_GC] (site TCGCGACCTCG) (LTG core: CT, RTG core: GC) | 0.0211
33 | GGACACCCTTGGGTTCTAACCTGTTGCCTAT [GGACACCCTAG_LTGcore_CT_RTGcore_AT] (site GGACACCCTAG) (LTG core: CT, RTG core: AT) | 1.28
34 | GGACACCCTTGGGTTCTAACCTGTTGCCTCG [GGACACCCTAG_LTGcore_CT_RTGcore_CG] (site GGACACCCTAG) (LTG core: CT, RTG core: CG) | 0.306
35 | AAACATGGCTGGGTTCTAACCTGTTGCCTGC [AAACATGCTAG_LTGcore_GC_RTGcore_GC] (site AAACATGCTAG) (LTG core: GC, RTG core: GC) | 0.233
36 | GAGTCCTCTTGGGTTCTAACCTGTTGCCTCA [GAGTCCTCTAG_LTGcore_CT_RTGcore_TG] (site GAGTCCTCTAG) (LTG core: CT, RTG core: TG) | 0.316
37 | TGATACCAGTGGGTTCTAACCTGTTGCGTCT [TGATACCCTAC_LTGcore_AG_RTGcore_AG] (site TGATACCCTAC) (LTG core: AG, RTG core: AG) | 0.256
38 | GCGCGACATTGGGTTCTAACCTGTTGCTTAG [GCGCGACCTAA_LTGcore_AT_RTGcore_CT] (site GCGCGACCTAA) (LTG core: AT, RTG core: CT) | 0.0488
39 | TCTACCCAGTGGGTTCTAACCTGTTGCTGCT [TCTACCCCTCA_LTGcore_AG_RTGcore_AG] (site TCTACCCCTCA) (LTG core: AG, RTG core: AG) | 0.24
40 | GAGCCCATATGGGTTCTAACCTGTTGCCTTA [GAGCCCACTAG_LTGcore_TA_RTGcore_TA] (site GAGCCCACTAG) (LTG core: TA, RTG core: TA) | 0.338
41 | GTCGCCCCTTGGGTTCTAACCTGTTGCTAGA [GTCGCCCCTTA_LTGcore_CT_RTGcore_TC] (site GTCGCCCCTTA) (LTG core: CT, RTG core: TC) | 0.304
42 | GGACACCCTTGGGTTCTAACCTGTTGCCTGT [GGACACCCTAG_LTGcore_CT_RTGcore_AC] (site GGACACCCTAG) (LTG core: CT, RTG core: AC) | 0.442
43 | AGTCTTATATGGGTTCTAACCTGTTGCCAAG [AGTCTTACTTG_LTGcore_TA_RTGcore_CT] (site AGTCTTACTTG) (LTG core: TA, RTG core: CT) | 0.0306
44 | AAACAGTCTTGGGTTCTAACCTGTTGCCTAG [AAACAGTCTAG_LTGcore_CT_RTGcore_CT] (site AAACAGTCTAG) (LTG core: CT, RTG core: CT) | 2.46
45 | AAACATGCTTGGGTTCTAACCTGTTGCCTGA [AAACATGCTAG_LTGcore_CT_RTGcore_TC] (site AAACATGCTAG) (LTG core: CT, RTG core: TC) | 1.4
